From the NIST ThermoML archive (doi:10.1016/j.jct.2005.03.002)
Numbers after ± are expanded uncertainties.

Settings: 101.33 kPa, Liquid

CCOS(=O)(=O)[O-].CCn1cc[n+](C)c1 [1-ethyl-3-methylimidazolium ethyl sulfate]
Settings	mass density [kg/m3]
278.2 K	1243 ± 6.1
288.2 K	1236.2 ± 6
298.2 K	1229.6 ± 5.9
308.2 K	1223 ± 5.8
318.2 K	1216.2 ± 5.7
328.2 K	1209.9 ± 5.7
338.2 K	1203.7 ± 5.6
